According to patent US9555061B2, “Synthesis and analysis of compounds capable of inducing differentiation of human mesenchymal stems cells into hepatocytes” (National University Corporation Torrori University, priority 2011, dated 2017):

Legend:
Assay type in all cases: cell-based, human
[1] = tested on: bone marrow-derived mesenchymal stem cells; experiment: RT-PCR of albumin in sorted bone marrow-derived mesenchymal stem cells; conditions: 45 μM
Procedure: Cells were seeded on a 6-well plate at a cell density of 1.8×10^4 cells/cm^2. This day was designated as day 0. At day 1 corresponding to the next day, the medium was changed to a medium containing IC-2 (at a final concentration of 25, 35, or 45 μM) or 0.1% DMSO. At day 4, the medium was changed in a manner similar to that at day 1, and at day 8, the cells were reseeded and subcultured at a cell density of 1.8×10^4 cells/cm^2. After that, the medium was replaced twice during 8 days, and the cells were subcultured every 8 days. Then, the similar operation was carried out until day 24. At days 8, 16, and 24 after the initiation of the induction, TRIzol (Invitrogen) was used to extract total RNA according to the attached instruction. After the extraction, deoxyribonuclease (Nippon Gene) was added, and the mixture was incubated at 37° C. for 30 min to remove DNA. In a reverse transcription reaction, SuperScriptII Reverse Transcriptase (Invitrogen) and Oligo(dT)15 primer were added to 1 μg of RNA to convert it into cDNA. In a RT-PCR method, the cDNA was diluted by 5 times. Next, 1 μl of the cDNA was used as a template. Then, rTaq DNA polymerase (TOYOBO) was used to amplify the cDNA. MQ water was used as a negative control. cDNA from Huh-7 or UE7T-13 cells was used as a positive control.
In order to determine hepatocyte differentiation markers, levels of expression of albumin were measured. […]

[2] = tested on: clinical specimen-derived mesenchymal stem cells; experiment: Immunofluorescence staining in clinical specimen-derived mesenchymal stem cells; conditions: day 8; PN-3-13 20 μM, IC-2 40 μM
Procedure: A cover glass that had been sterilized with 100% ethanol was placed on a 12-well plate. Cells were seeded on the cover glass at a cell density of 1.8×10^4 cells/cm^2. This day was designated as day 0. At day 1 corresponding to the next day, the medium was changed to a medium containing HC-2 (at a final concentration of 20 μM), PN-3-13 (at a final concentration of 20 μM), IC-2 (at a final concentration of 40 μM), or 0.1% DMSO. At day 4, the medium was changed in a manner similar to that at day 1. At day 8, the culture medium was removed and the cells were washed twice with PBS. Then, in order to perform immunostaining of albumin, the cells were fixed for 20 min with 4% paraformaldehyde (Nacalai Tesque) containing 8% sucrose (Wako Pure Chemical Industries, Ltd.). For immunostaining of C/EBPα or CYP1A1, the cells were fixed for 20 min with 4% paraformaldehyde. After that, the cells were permeated with 0.2% Triton X-100 (Wako Pure Chemical Industries, Ltd.) for 10 min and were then blocked in 3% BSA (Nacalai Tesque) at room temperature for 30 min without shaking.
After the primary antibody reaction, the cells were washed with 0.1% BSA/PBS. […] The cells were incubated with each antibody, and were kept in a dark condition at room temperature for 1 h to carry out a secondary antibody reaction. Their nuclei were stained with DAPI (Cell Signaling Technology Inc.). […]

[3] = tested on: UE7T-13 cells; experiment: RT-PCR of genes encoding liver-specific secretory proteins and cytokines (UE7T-13); conditions: hexachlorophene 0.8 μM or IC-2 15 μM; days 8, 16, 24
Procedure: Bone marrow-derived mesenchymal stem cells (UE7T-13 cells) were treated with a compound, hexachlorophene (H4625-25G; Sigma-Aldrich, Inc.) or IC-2. At that time, gene expression of each of liver-specific secretory proteins and cytokines was evaluated. […] This time point was set to day 0.
At the next day corresponding to day 1, the medium was changed to DMEM containing hexachlorophene at a final concentration of 0.8 μM or IC-2 at a final concentration of 15 μM. […] After that, the medium was replaced twice during 8 days, and the cells were subcultured every 8 days. Then, the similar operation was carried out until day 24. At days 8, 16, and 24 after the initiation of the induction, TRIzol (Invitrogen) was used to extract total RNA according to the attached instruction. After the extraction, deoxyribonuclease (Nippon Gene) was added, and the mixture was incubated at 37° C. for 30 min to remove DNA. In a reverse transcription reaction, SuperScriptII Reverse Transcriptase (Invitrogen) and Oligo(dT)15 primer were added to 1 μg of RNA to convert it into cDNA. In a RT-PCR method, the cDNA was diluted by 5 times. Next, 1 μl of the cDNA was used as a template. Then, rTaq DNA polymerase (TOYOBO) was used to amplify the cDNA. MQ water was used as a negative control. cDNA from Huh-7 or UE7T-13 cells was used as a positive control. […]

(6S,9aS)-6-phenyl-8-naphthalen-1-ylmethyl-4,7-dioxo-hexahydro-pyrazino[1,2-a]pyrimidine-1-carbocylic acid benzylamide [IC-2]
albumin expression compared with 0.1% DMSO [1]: remarkable increase
levels of expression of albumin, C/EBPα, and CYP1A1 compared with negative control (0.1% DMSO) [2]: apparently increased
expression of a plurality of the liver-specific secretory proteins and cytokines [3]: increased levels of expression
